Results taken from EP0326331B1, “Substituted quinolines and cinnolines” (Dow AgroSciences LLC, priority 1988, dated 1989).

Tests used:
Assay type in all cases: in vivo
[1] = system: Erysiphe graminis tritici (powdery mildew); experiment: Test 1 greenhouse foliar spray screen, powdery mildew on wheat; details: disease control rating, foliar spray on wheat, 400 ppm (+++ at 100 ppm)
[2] = system: Pyricularia oryzae (rice blast); experiment: whole plant or invertebrate; details: disease control rating, foliar spray on rice, 400 ppm (+++ at 100 ppm)
[3] = system: Puccinia recondita tritici (leaf rust); experiment: Test 1 greenhouse foliar spray screen, leaf rust on wheat; details: disease control rating, foliar spray on wheat, 400 ppm (+++ at 100 ppm)
[4] = system: Botrytis cinerea (gray mold); experiment: Test 1 greenhouse foliar spray screen, gray mold on grape berries; details: disease control rating, spray on grape berries, 400 ppm (+++ at 100 ppm)
[5] = system: Pseudoperonospora cubensis (downy mildew); experiment: Test 1 greenhouse foliar spray screen, downy mildew on squash; details: for DOWN MDEW: disease control rating, foliar spray on squash, 400 ppm (+++ at 100 ppm)
[6] = system: Venturia inaequalis (apple scab); experiment: Test 1 greenhouse foliar spray screen, apple scab on apple seedling; details: disease control rating, foliar spray on apple seedling, 400 ppm (+++ at 100 ppm)
[7] = system: Septoria tritici (leaf blotch); experiment: Test 1 greenhouse foliar spray screen, leaf blotch on wheat; details: disease control rating, foliar spray on wheat, 400 ppm (+++ at 100 ppm)
[8] = system: southern armyworm (Spodopetra eridania Cramer); experiment: Mite/insect screen, SAW; details: Spodoptera eridania, percent mortality; SAW, SM & MA RATE 200 PPM; read-out: SAW RESULTS %
Method in brief: (§1)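 Formulation: acetone/alcohol 50:50 + sulfonate/nonionic emulsifiers, water-diluted to indicated concs. Spray both leaf surfaces to runoff, 10 psi; dry 1 h. Armyworm: 2 excised uninfested leaves in Petri dish. Score % mortality after standard exposure.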

[9] = system: Twospotted spider mites (Tetranychus urticae Koch); experiment: Mite/insect screen, SM; details: Tetranychus urticae, percent mortality; SAW, SM & MA RATE 200 PPM; read-out: SM RESULTS %
Method in brief: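 Compounds dissolved in 50:50 acetone/alcohol containing sulfonate/nonionic emulsifier blends, then diluted with water to the indicated concentrations. Leaves sprayed on both surfaces to runoff at 10 psi and dried one hour. Percent mortality scored after standard exposure periods.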

[10] = system: melon aphids (Aphis gossypii Glover); experiment: Mite/insect screen, MA; details: Aphis gossypii, percent mortality; SAW, SM & MA RATE 200 PPM; read-out: MA RESULTS %
Method in brief: as §1

corn rootworm = experiment: Mite/insect screen, CRW; details: percent mortality; CRW RATE 12.00 PPM; read-out: CRW RESULTS %
Method in brief: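 Percent mortality is evaluated once the standard exposure period ends. Test material is applied as a water dilution of an acetone/alcohol (50:50) stock carrying two sulfonate/nonionic emulsifiers (23 and 13 g per liter).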

Compound | POWD MDEW [1] | RICE BLAST [2] | LEAF RUST [3] | GRAY MOLD [4] | DOWN MDEW [5] | APPL SCAB [6] | LEAF BLOT [7] | mortality at 200 ppm [8] | mortality at 200 ppm [9] | mortality at 200 ppm [10] | mortality at 12 ppm (corn rootworm) | activity against downy mildew ([5]; summary statement in the description)
COc1ccc(CCNc2ccnc3ccccc23)cc1 [Example 22, N-[2-(4-methoxyphenyl)-ethyl]-4-quinolinamine] | + (20-89% control at 400 ppm) | + (20-89% control at 400 ppm) | + (20-89% control at 400 ppm) | - (0-19% control at 400 ppm) | +++ (90-100% control at 100 ppm) | - (0-19% control at 400 ppm) | - (0-19% control at 400 ppm) | 0% | 0% | 0% | 0% | 
c1ccc(C(CNc2ccnc3ccccc23)c2ccccc2)cc1 [Example 23, N-(2,2-diphenylethyl)-4-quinolinamine] | + (20-89% control at 400 ppm) | + (20-89% control at 400 ppm) | + (20-89% control at 400 ppm) | - (0-19% control at 400 ppm) | +++ (90-100% control at 100 ppm) | - (0-19% control at 400 ppm) | - (0-19% control at 400 ppm) | 0% | 0% | 0% | 0% | 
CC(Cc1ccccc1)Nc1ccnc2ccccc12 (centres unmarked) [Example 24, N-(1-methyl-2-phenylethyl)-4-quinolinamine] | + (20-89% control at 400 ppm) | + (20-89% control at 400 ppm) | + (20-89% control at 400 ppm) | - (0-19% control at 400 ppm) | +++ (90-100% control at 100 ppm) | - (0-19% control at 400 ppm) | - (0-19% control at 400 ppm) | 0% | 0% | 0% | 0% | 
Clc1cc(NCCc2ccccc2)c2ccccc2n1 [Example 25, 2-chloro-N-(2-phenylethyl)-4-quinolinamine] | + (20-89% control at 400 ppm) | + (20-89% control at 400 ppm) | ++ (90-100% control at 400 ppm) | - (0-19% control at 400 ppm) | +++ (90-100% control at 100 ppm) | - (0-19% control at 400 ppm) | - (0-19% control at 400 ppm) | 0% | 0% | 0% | 0% | 
OC(CNc1ccnc2ccccc12)c1ccccc1 (stereo not drawn) [Example 26, α-[(4-quinolinylamino)methyl]benzenemethanol] | + (20-89% control at 400 ppm) | + (20-89% control at 400 ppm) | - (0-19% control at 400 ppm) | - (0-19% control at 400 ppm) | +++ (90-100% control at 100 ppm) | - (0-19% control at 400 ppm) | - (0-19% control at 400 ppm) | 0% | 0% | 0% | 0% | 
Cc1cccc2c(NCCc3ccccc3)ccnc12 [Example 27, 8-methyl-N-(2-phenylethyl)-4-quinolinamine] | + (20-89% control at 400 ppm) | ++ (90-100% control at 400 ppm) | + (20-89% control at 400 ppm) | - (0-19% control at 400 ppm) | +++ (90-100% control at 100 ppm) | - (0-19% control at 400 ppm) | - (0-19% control at 400 ppm) | 0% | 0% | 0% | 0% | 
Cc1cc(C)c2nccc(NCCc3ccccc3)c2c1 [Example 28, 6,8-dimethyl-N-(2-phenylethyl)-4-quinolinamine] | + (20-89% control at 400 ppm) | ++ (90-100% control at 400 ppm) | + (20-89% control at 400 ppm) | - (0-19% control at 400 ppm) | +++ (90-100% control at 100 ppm) | - (0-19% control at 400 ppm) | - (0-19% control at 400 ppm) | 0% | 0% | 0% | 0% | 
Cc1ccc2nccc(NCCc3ccccc3)c2c1 [Example 30, 6-methyl-N-(2-phenylethyl)-4-quinolinamine] | - (0-19% control at 400 ppm) | + (20-89% control at 400 ppm) | + (20-89% control at 400 ppm) | - (0-19% control at 400 ppm) | +++ (90-100% control at 100 ppm) | - (0-19% control at 400 ppm) | - (0-19% control at 400 ppm) | 0% | 0% | 0% | 0% | 
Clc1ccc2c(NCCc3ccccc3)ccnc2c1 [Example 31, 7-chloro-N-(2-phenylethyl)-4-quinolinamine] | ++ (90-100% control at 400 ppm) | + (20-89% control at 400 ppm) | + (20-89% control at 400 ppm) | - (0-19% control at 400 ppm) | +++ (90-100% control at 100 ppm) | - (0-19% control at 400 ppm) | - (0-19% control at 400 ppm) | 0% | 0% | 0% | 0% | 
Cc1ccc2c(NCCc3ccccc3)ccnc2c1C [Example 32, 7,8-dimethyl-N-(2-phenylethyl)-4-quinolinamine] | + (20-89% control at 400 ppm) | + (20-89% control at 400 ppm) | - (0-19% control at 400 ppm) | - (0-19% control at 400 ppm) | +++ (90-100% control at 100 ppm) | - (0-19% control at 400 ppm) | - (0-19% control at 400 ppm) | 0% | 0% | 0% | 0% | 
Clc1cccc2c(NCCc3ccccc3)ccnc12 [Example 33, 8-chloro-N-(2-phenylethyl)-4-quinolinamine] | - (0-19% control at 400 ppm) | + (20-89% control at 400 ppm) | + (20-89% control at 400 ppm) | - (0-19% control at 400 ppm) | +++ (90-100% control at 100 ppm) | - (0-19% control at 400 ppm) | - (0-19% control at 400 ppm) | 0% | 0% | 0% | 0% | particularly excellent activity
